Test results taken from article PMC10526274, “Epithelial-Immune Cell Crosstalk Determines the Activation of Immune Cells In Vitro by the Human Cathelicidin LL-37 at Low Physiological Concentrations” (Biomolecules, 2023).

System: NKT cells (CD3+CD56+)
Assay: Multiplex xMAP cytokine levels, NKT cells alone stimulated with LL-37
Type: cell-based, human
Conditions: 1 µM LL-37, 24 h
Experimental: NKT cells (CD3^+CD56^+) were isolated from PBMCs using the FACSVantageDiVa cell sorter (Becton Dickinson, Franklin Lakes, NJ, USA), equipped with 405, 488, and 643 nm lasers (Supporting Materials, Figure S1). PBMCs were re-suspended in the FACS buffer (PBS containing 0.5% BSA and 2 mM EDTA) and labeled with monoclonal mouse anti-human CD3-APC (clone UCHT1, Beckman Coulter, Pasadena, CA, USA) and mouse anti-human CD56-PE/Cy7 (clone N901, Beckman Coulter) antibodies to isolate NKT cells (CD3^+CD56^+).
Sorted NKT cells were expanded by stimulation with Dynabead Human T-Expander CD3/CD28 magnetic beads (Gibco) in RPMI-1640 medium containing 10% FBS, 1X antibiotic–antimycotic solution, 100 U/mL IL-2 (Gibco), and 50 ng/mL IL-7 (Sci-Store). CD3/CD28 magnetic beads were subsequently removed with a magnet. Expanded NKT cells were washed out of the cytokines and cryopreserved.
Primary blood monocytes, moDCs, and NKT cells were seeded in 600 µL of complete RPMI-1640 with 10% Human AB serum (Capricorn Scientific, Ebsdorfergrund, Germany) and supplemented with 1X antibiotic–antimycotic solution into the wells of 24-well plates at a density of 3–7 × 10^5 cells/well 24 h before the experiment. Then, 24 h later, the medium in each well was replaced by the same medium with 1 µM of LL-37 for the sample wells or fresh medium alone for the control wells, and the permeable inserts with the Caco-2 monolayer with TEER > 400 Ω × cm^2, containing 400 μL of the complete medium in their apical chamber, were immediately placed into the appropriate wells. Also, inserts with the Caco-2 monolayer were placed in cell-free wells of 24-well plates in the same complete RPMI-1640 medium with or without 1 µM of LL-37 as controls. Cells were kept in a CO2-incubator (5% CO2, 37 °C) for another 24 h. Then, culture medium from each well was collected, centrifuged, and frozen at −70 °C.
To quantitatively evaluate a broad spectrum of analytes secreted by human cell cultures at the protein level, multiplex xMAP technology was used. The chosen panel (cat. #HCYTA-60K-PX48, Merck, Darmstadt, Germany) included 48 different magnetic beads with primary antibodies to the following cytokines, chemokines, and growth factors: CCL11 (Eotaxin-1), Flt-3 ligand, CX3CL1 (Fractalkine), sCD40L, FGF-2, EGF, GROα, GM-CSF, G-CSF, IL-1RA, IL-1α, IL-1β, IL-2, IL-3, IL-4, IL-5, IL-6, IL-7, CXCL8 (IL-8), IL-9, IL-10, IL-12p40, IL-12p70, IL-13, IL-15, IL-17A (CTLA8), IL-17E (IL-25), IL-17F, IL-18, IL-22, IL-27, IFNγ, IFNα2, CXCL10 (IP-10), CCL2 (MCP-1), CCL7 (MCP-3), CCL22 (MDC), CXCL9 (MIG), CCL3 (MIP-1α), CCL4 (MIP-1β), CCL5 (RANTES), M-CSF, PDGF-AA, PDGF-AB/BB, TNFα, TNFβ, TGFα, and VEGF-A. The assay was performed in accordance with the manufacturer’s instructions with overnight incubation of the samples with primary antibodies, and the plate was read on a MAGPIX System (Merck) using the xPONENT 4.2 software (Merck). The acquired fluorescence data were analyzed by the MILLIPLEX Analyst v5.1 software (Merck), which realized an advanced curve-fitting algorithm. Levels of the analytes in control and experimental samples were compared with an unpaired two-sample t-test using GraphPad Prism v.8.0.1 (GraphPad Software, Inc., San Diego, CA, USA). The p-values ≤ 0.05 were considered significant.

In the case of “LL-37: the only human cathelicidin, host defense antimicrobial peptide of 37 a.a. residues, produced by solid-phase peptide synthesis”, the IL-8 level (n=2, control 0.21) is reported as 2.37 pg/mL, the IL-10 level (n=2, control 1.55) is reported as <1.35↓ pg/ml and the IL-2 level (n=2, control 1.66) is reported as 1.16 pg/mL. For the same substance, the FLT-3L level (n=2, control 1.72) was 1.67 pg/mL, the EGF level (n=2, control 2.26) was 2.26 pg/mL and the IL-6 level (n=2, control 3.12) was 1.89 pg/mL. For the same substance, the MCP-3 level (n=2, control 4.7) was 4.7 pg/mL, the MDC level (n=2, control 5.04) was 2.93 pg/mL and the IL-9 level (n=2, control 7.06) was 7.45 pg/mL. The MIG level (n=2, control 10.31) was 7.16 pg/mL, the IL-1a level (n=2, control 11.32) was 13.27 pg/mL and the IL-27 level (n=2, control 13.33) was 29.42 pg/mL. The IFNg level (n=2, control 13.41) was 12.33 pg/mL, the TNFa level (n=2, control 14.53) was 13.36 pg/mL and the sCD40L level (n=2, control 18.13) was <8.15↓ pg/ml. It also gave an FGF-2 level (n=2, control 29.25) of 21.45 pg/mL, an IP-10 level (n=2, control 56.07) of 50.77 pg/mL and a M-GSF level (n=2, control 66.65) of 60.35 pg/mL. The MIP-1b level (n=2, control 67.9) was 58.14 pg/mL, the GM-CSF level (n=2, control 76.24) was 76.06 pg/mL and the IL-13 level (n=2, control 251.23) was 237.88 pg/mL. For the same substance, the IL-5 level (n=2, control 323.09) was 285.93 pg/mL, the RANTES level (n=2, control 1182) was 1237 pg/mL and the MIP-1a level (n=2, control 1355) was 1113 pg/mL. For the same substance, the IL-7 level (n=2, control <0.30) was <0.30↓ pg/ml, the IL-18 level (n=2, control <0.30) was <0.30↓ pg/ml and the IL-3 level (n=2, control <0.55) was <0.55↓ pg/ml. For the same substance, the GROa level (n=2, control <0.66) was <0.66↓ pg/ml, the TGF-a level (n=2, control <0.68) was <0.68↓ pg/ml and the IL-17A level (n=2, control <0.70) was <0.70↓ pg/ml. For the same substance, the IL-1b level (n=2, control <0.74) was <0.74↓ pg/ml, the IL-4 level (n=2, control <0.87) was <0.87↓ pg/ml and the IL-1RA level (n=2, control <0.93) was <0.93↓ pg/ml. The TNFb level (n=2, control <0.93) was 1 pg/mL, the VEGFa level (n=2, control <1.26) was <1.26↓ pg/ml and the MCP-1 level (n=2, control <1.35) was <1.35↓ pg/ml. For the same substance, the IL-15 level (n=2, control <1.54) was <1.54↓ pg/ml, the “IL-12 (p70) level” value (n=2, control <1.71) was <1.71↓ pg/ml and the G-CSF level (n=2, control <2.32) was <2.32↓ pg/ml. The Eotaxin level (n=2, control <2.91) was <2.91↓ pg/ml, the “IL-12 (p40) level” value (n=2, control <3.33) was <3.33↓ pg/ml and the IFNa2 level (n=2, control <3.88) was <3.88↓ pg/ml. For the same substance, the PDGF-AB/BB level (n=2, control <5.00) was <5.00↓ pg/ml, the PDGF-AA level (n=2, control <6.49) was <6.49↓ pg/ml and the IL-22 level (n=2, control <6.61) was <6.61↓ pg/ml. The IL-17F level (n=2, control <12.19) was <12.19↓ pg/ml, the Fractalkine level (n=2, control <18.09) was <18.09↓ pg/ml and the IL-17E/IL-25 level (n=2, control <19.43) was <19.43↓ pg/ml.
